# Measured values: PMC7826790, “Glucose 6-Phosphate Dehydrogenase from Trypanosomes: Selectivity for Steroids and Chemical Validation in Bloodstream Trypanosoma brucei” (Molecules, 2021)
# Where two headings read alike, the source gives them in different places.
# Experiments:
# [1] = test system: Bloodstream T. b. brucei (strain 427- cell line 514-1313); assay: Cell viability of bloodstream T. b. brucei (bioluminescent assay); format: cell-based, Trypanosoma brucei brucei; settings: for EC50: 24 h incubation, read-out: EC50 T. brucei Bloodstream Form; for Selectivity Index (CC50 for murine macrophages/EC50 for T. brucei): DHEA: Hek293T CC50, Conessine: L6 CC50
# Method: Parasite viability was performed as described in [72]. […] Thereafter, 200 µL from each well were transferred to a 96-well black plate and incubated with 20 µL of a solution containing: 1.5 mg/mL luciferin in PBS glucose 1% (w/v) and Triton X-100.
# [2] = Cytotoxicity to murine macrophages (WST-1); format: cell-based; settings: mouse, J774 murine macrophage cells, read-out: CC50 Murine Macrophage (Cell Line J774)
# Method: (§2) Cell viability was assessed using the WST-1 reagent.
# (§3) EC50 values were obtained from the corresponding concentration/response plots fitted to a sigmoidal Hill equation or extrapolated from nonlinear fitting equations.
# [3] = test system: T. cruzi epimastigotes (strain DM28); assay: Cell viability of T. cruzi epimastigotes (propidium iodide, flow cytometry); settings: 72 h; for cytotoxicity at 50 µM: read-out: % Cytotoxicity (50 µM) T. Cruzi Epimastigote Form, 50 µM, 72 h
# Method: T. cruzi epimastigotes (strain DM28) were grown at 28 °C in LIT medium supplemented with 10% (v/v) Fetal Bovine Serum (FBS; GIBCO®), 7.5 mM hemin and antibiotics (penicillin 10 U/mL– streptomycin 10 µg/mL). […] Thereafter, 200 µL from each well were transferred to individual cytometer tubes.
# EC50 values were obtained from the corresponding concentration/response plots fitted to a sigmoidal Hill equation or extrapolated from nonlinear fitting equations. The errors were calculated using error propagations and are expressed as S.D. estimated as σ^(n−1).
# T. cruzi G6PDH [4] = target: T1, T. cruzi G6PDH (Trypanosoma cruzi, UniProt Q4E0B2); assay: biochemical; format: biochemical
# Method: (§1) E. coli Tuner (DE3) cells were transformed with the pET28a (+) and pHis constructs encoding for N-terminally hexa histidine-tagged TcG6PDHL and HsG6PDH, respectively, and grown overnight in LB medium with […] and […], respectively. […] Thereafter, the cultures were incubated for 20 h at 25 °C and 170 rpm. Cells were harvested by centrifugation (5000× g, 10 min, 4 °C), resuspended in buffer A (50 mM Tris, pH of 8.0, 500 mM NaCl and 5 mM MgCl2) containing a complete™ Protease Inhibitor Cocktail prepared as indicated by the provider (Sigma-Aldrich-Merck, Germany); afterwards, we added 1 mg/mL of lysozyme and incubated the cells for 1 h at 4 °C. […] Protein concentration was determined from the absorbance values at 280 nm and the corresponding theoretical absorbance coefficients.
# All reactions were performed in 50 mM Tris (pH 7.5) with 5 mM MgCl2 and 250 mM NaCl in a final volume of 500 µL. […] For each enzyme, a control reaction in the presence of 1% (v/v) DMSO was run. Stock and working solutions of compounds were prepared in 100% (v/v) DMSO. […] The initial velocities were calculated from the first 45 s of the reaction and normalized to the corresponding enzyme control. All measurements were performed at least in triplicate using a Cary 50 Bio spectrophotometer (Agilent Technologies, Santa Clara, CA, USA) at RT. The initial rates were determined with the Origin Pro 8.0 software (OriginLab Corporation, Northampton, MA, USA), and the IC50 values were calculated by nonlinear regression using the GraphPad Prism 5.0 software (GraphPad Inc., San Diego, CA, USA).
# human G6PDH [5] = target: T2, human G6PDH (Homo sapiens, UniProt P11413); assay: G6PDH enzymatic assay, recombinant human G6PDH (NADPH formation at 340 nm); format: biochemical, H. sapiens; settings: for inhibition at 100 µM: read-out: % inhibition of human G6PDH; for inhibition of human G6PDH at highest concentration: 100 µM
# T2 construct: hexa-histidine (His6) (N); made in house; host or cells: E. coli Tuner (DE3), pHis vector
# Method: as §1, with “°C. Cells were further lysed by three cycles of sonication (45% amplitude, 2 s pulse on/off, for 1 min) using a macrotip in a Branson Digital Sonifier 450 (Marshall Scientific, Hampton, VA, USA) and debris was removed by centrifugation at 27,000× g for 45 min at 4 °C and filtrated through a 0.45 µm filter (Millipore-Merck, Darmstadt, Germany).” for “°C.”
# G6PDH activity was determined at room temperature (RT) by monitoring NADPH (ε340 = 6220 M^−1 cm^−1) formation at 340 nm. All reactions were performed in 50 mM Tris (pH 7.5) with 5 mM MgCl2 and 250 mM NaCl in a final volume of 500 µL. The reactions were started by the addition of 700 µM NADP^+ and 6 mM G6P for TcG6PDH or by the addition of 250 µM NADP^+ and 1 mM G6P for the human enzyme. For each enzyme, a control reaction in the presence of 1% (v/v) DMSO was run. Stock and working solutions of compounds were prepared in 100% (v/v) DMSO. […] The initial velocities were calculated from the first 45 s of the reaction and normalized to the corresponding enzyme control. All measurements were performed at least in triplicate using a Cary 50 Bio spectrophotometer (Agilent Technologies, Santa Clara, CA, USA) at RT. The initial rates were determined with the Origin Pro 8.0 software (OriginLab Corporation, Northampton, MA, USA), and the IC50 values were calculated by nonlinear regression using the GraphPad Prism 5.0 software (GraphPad Inc., San Diego, CA, USA).
# [6] = test system: Murine macrophages (cell line J774); assay: Cytotoxicity to murine macrophages (WST-1); format: cell-based; settings: 24 h, read-out: CC50 Murine Macrophage (Cell Line J774)
# Method: as §2, §3
# human G6PDH [7] = target: T2, human G6PDH; set-up: method as in PMID 22506561; settings: read-out: IC50 H. sapiens G6PDH; cited from earlier work
# [8] = test system: Bloodstream T. b. brucei expressing the redox biosensor hGrxroGFP2; assay: Redox reporter assay (hGrx1-roGFP2 biosensor, flow cytometry); format: cell-based, Trypanosoma brucei brucei
# Method: Bloodstream T. b. brucei expressing the redox biosensor hGrxroGFP2 was grown as described elsewhere. […] Next, 50 µL from each well were transferred to a 96-well plate, containing 100 µL of sterile PBS with glucose 1% (w/v). […] GFP fluorescence (filter λem = 530/40 nm) was only analyzed for viable cells (PI negative). The data were processed and analyzed with the C6Accuri software. Samples were analyzed in triplicate and the error is expressed as S.D.
# [9] = test system: Bloodstream T. b. brucei (strain 427- cell line 514-1313); set-up: method as in PMID 28684718; settings: read-out: EC50 T. brucei Bloodstream Form, cited from earlier work
# [10] = test system: mammalian L6 cell line from rat skeletal myoblasts; set-up: method as in PMID 28684718; settings: printed in the macrophage column; read-out: CC50 against mammalian L6 cell line; cited from earlier work
# T. cruzi G6PDH [11] = target: T1, T. cruzi G6PDH; settings: read-out: IC50 T. cruzi G6PDH, cited from earlier work
# Hek293T = settings: read-out: CC50 against Hek293T; printed in the macrophage column; cited from earlier work
# L. mexicana G6PDH = settings: cited from earlier work
# [12] = test system: G6PDH in T. cruzi strain CL Brenner epimastigotes; settings: 24 h
# [13] = recombinant human G6PDH, 250 µM NADP+, 1 mM G6P, RT, read-out: IC50 H. sapiens G6PDH
# T1 sequence (Q4E0B2 entry or part of it): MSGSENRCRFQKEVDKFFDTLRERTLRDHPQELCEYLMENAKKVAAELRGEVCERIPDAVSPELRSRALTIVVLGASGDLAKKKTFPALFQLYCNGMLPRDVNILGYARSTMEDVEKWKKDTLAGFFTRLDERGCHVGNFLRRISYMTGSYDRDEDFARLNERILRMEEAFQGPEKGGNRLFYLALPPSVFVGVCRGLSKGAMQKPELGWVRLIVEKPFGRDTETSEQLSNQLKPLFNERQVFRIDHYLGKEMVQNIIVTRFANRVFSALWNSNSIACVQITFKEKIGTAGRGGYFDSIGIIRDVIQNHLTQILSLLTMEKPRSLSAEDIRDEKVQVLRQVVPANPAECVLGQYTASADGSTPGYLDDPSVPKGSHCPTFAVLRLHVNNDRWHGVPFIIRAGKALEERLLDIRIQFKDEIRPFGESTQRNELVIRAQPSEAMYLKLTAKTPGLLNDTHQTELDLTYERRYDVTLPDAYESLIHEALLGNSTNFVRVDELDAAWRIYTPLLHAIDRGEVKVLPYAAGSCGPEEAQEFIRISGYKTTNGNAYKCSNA
# T2 sequence (P11413 whole entry): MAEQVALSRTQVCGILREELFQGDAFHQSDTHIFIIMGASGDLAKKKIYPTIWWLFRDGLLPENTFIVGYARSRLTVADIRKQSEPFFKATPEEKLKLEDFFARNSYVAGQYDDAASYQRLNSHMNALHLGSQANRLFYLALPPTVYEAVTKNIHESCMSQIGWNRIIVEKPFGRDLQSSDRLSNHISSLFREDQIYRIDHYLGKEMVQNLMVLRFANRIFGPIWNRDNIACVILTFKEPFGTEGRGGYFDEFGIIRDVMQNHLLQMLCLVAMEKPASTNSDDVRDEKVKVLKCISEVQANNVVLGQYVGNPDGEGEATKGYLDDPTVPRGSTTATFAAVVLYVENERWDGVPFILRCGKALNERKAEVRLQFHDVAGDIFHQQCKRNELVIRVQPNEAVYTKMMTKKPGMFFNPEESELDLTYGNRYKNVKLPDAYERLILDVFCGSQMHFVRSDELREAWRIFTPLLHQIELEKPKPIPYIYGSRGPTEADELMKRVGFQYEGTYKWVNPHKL
smiles,measurement,setting,value
"C[C@]12CC[C@H](O)C[C@@H]1CC[C@@H]1[C@@H]2CC[C@]2(C)C(=O)[C@H](Br)C[C@@H]12 [Compound 1, 16α-bromo-epiandrosterone]",EC50,"[1]; Trypanosoma brucei, 24 h",1.9 ± 0.2 µM
same,CC50 at 24 h,[2],8.8 ± 1 µM
same,% Cytotoxicity (50 µM) T. Cruzi Epimastigote Form,[3],14.5 ± 5.3%
same,cytotoxicity at 50 µM,[3]; Trypanosoma cruzi,15%
CC(=O)O[C@H]1CC[C@@]2(C)[C@@H](CC[C@@H]3[C@@H]2CC[C@]2(C)C(=O)[C@H](Br)C[C@@H]32)C1 [Compound 2],IC50,T. cruzi G6PDH [4],0.11 ± 0.02 µM
same,IC50,human G6PDH [5],> 100 µM
same,inhibition at 100 µM,human G6PDH [5],0%
same,EC50,"[1]; Trypanosoma brucei, 24 h",5.3 ± 0.4 µM
same,CC50 at 24 h,[2],42 ± 1 µM
same,cytotoxicity at 50 µM,[3]; Trypanosoma cruzi,64 ± 4.1%
CC(=O)O[C@H]1CC[C@@]2(C)[C@@H](CC[C@@H]3[C@@H]2CC[C@]2(C)C(=O)[C@@H](Br)C[C@@H]32)C1 [Compound 3],IC50,T. cruzi G6PDH [4],1.5 ± 0.2 µM
same,IC50,human G6PDH [5],> 100 µM
same,inhibition of human G6PDH at highest concentration,human G6PDH [5],inactive
same,EC50,"[1]; Trypanosoma brucei, 24 h",4.8 ± 0.5 µM
same,CC50 at 24 h,[2],0.96 µM
same,CC50,[6],1 ± 0.1 µM
same,% Cytotoxicity (50 µM) T. Cruzi Epimastigote Form,[3],73.9 ± 3.4%
same,cytotoxicity at 50 µM,[3]; Trypanosoma cruzi,74%
C[C@]12CC[C@H](O)CC1=CC[C@@H]1[C@@H]2CC[C@]2(C)C(=O)[C@H](Br)C[C@@H]12 [Compound 4],IC50,human G6PDH [5]; [13],48 ± 2.6 µM
same,EC50,"[1]; Trypanosoma brucei, 24 h",7.5 ± 0.3 µM
same,CC50 at 24 h,[2],19 ± 3 µM
same,cytotoxicity at 50 µM,[3]; Trypanosoma cruzi,6.4 ± 1.6%
CC(=O)O[C@H]1CC[C@@]2(C)C(=CC[C@@H]3[C@@H]2CC[C@]2(C)C(=O)[C@H](Br)C[C@@H]32)C1 [Compound 5],IC50,T. cruzi G6PDH [4],0.079 ± 0.01 µM
same,IC50,human G6PDH [5],> 100 µM
same,inhibition at 100 µM,human G6PDH [5],0%
same,EC50,"[1]; Trypanosoma brucei, 24 h",18 ± 3 µM
same,CC50 at 24 h,[2],39 ± 3 µM
same,cytotoxicity at 50 µM,[3]; Trypanosoma cruzi,30.9 ± 2.5%
CC(=O)O[C@H]1CC[C@@]2(C)C(=CC[C@@H]3[C@@H]2CC[C@]2(C)C(=O)[C@@H](Br)C[C@@H]32)C1 [Compound 6],IC50,T. cruzi G6PDH [4],> 50 µM
same,IC50,human G6PDH [5],> 100 µM
same,inhibition of human G6PDH at highest concentration,human G6PDH [5],inactive
same,EC50,"[1]; Trypanosoma brucei, 24 h",5.3 ± 0.5 µM
same,CC50 at 24 h,[2],4.5 ± 0.4 µM
same,% Cytotoxicity (50 µM) T. Cruzi Epimastigote Form,[3],76.2 ± 0.8%
same,cytotoxicity at 50 µM,[3]; Trypanosoma cruzi,76%
C[C@]12CC[C@H](O)CC1=CC[C@@H]1[C@@H]2CC[C@]2(C)C(=O)C(O)C[C@@H]12 (stereo partly shown) [Compound 7],EC50,[1],> 24 µM
same,EC50,"[1]; Trypanosoma brucei, 24 h",24 to 44 µM
same,CC50 at 24 h,[2],> 24 µM
same,IC50,human G6PDH [7],15.8 ± 3.3 µM
same,cytotoxicity at 50 µM,[3]; Trypanosoma cruzi,3.9 ± 0.7%
"C[C@H]1[C@H]2CC[C@H]3[C@@H]4CC=C5C[C@@H](N(C)C)CC[C@]5(C)[C@H]4CC[C@]23CN1C [Conessine, reference compound]",inhibition of T. cruzi G6PDH at highest concentration,T. cruzi G6PDH [4]; 100 µM,did not inhibit
same,IC50,"T. cruzi G6PDH [4]; recombinant TcG6PDH, 700 µM NADP+, 6 mM G6P, RT, read-out: IC50 T. cruzi G6PDH",> 100 µM
same,inhibition of human G6PDH at highest concentration,human G6PDH [5],did not inhibit
same,IC50,human G6PDH [5]; [13],> 100 µM
same,Selectivity Index (CC50 for murine macrophages/EC50 for T. brucei),[1],145.7
same,induction of oxidative stress in bloodstream trypanosomes,[8],did not induce oxidative stress
same,EC50,[9]; footnote e,0.42 ± 0.01 µM
same,CC50,[10],61.2 µM
"C[C@]12CC[C@H](O)CC1=CC[C@@H]1[C@@H]2CC[C@]2(C)C(=O)CC[C@@H]12 [DHEA, dehydroepiandrosterone]",IC50,T. cruzi G6PDH [11]; TcG6PDH,21.5 ± 0.5 µM
same,IC50,human G6PDH [7],~10 µM
same,EC50,[9]; footnote c,43.8 ± 2 µM
same,CC50,Hek293T,25 ± 13 µM
same,inhibition of L. mexicana G6PDH,L. mexicana G6PDH,refractory
"C[C@]12CC[C@H](O)C[C@@H]1CC[C@@H]1[C@@H]2CC[C@]2(C)C(=O)CC[C@@H]12 [EA, Epiandrosterone]",G6PDH specific activity in cell extracts,[12]; 25 μM EA,0.12 U/mg
same,G6PDH specific activity in cell extracts,[12]; 100 μM EA,0.09 U/mg
same,IC50,T. cruzi G6PDH [11]; recombinant TcG6PDH,3 ± 0.4 µM
same,IC50,human G6PDH [7],~10 µM
same,EC50,[9]; footnote c,36.5 ± 3.6 µM
same,inhibition of L. mexicana G6PDH,L. mexicana G6PDH,refractory
"CC1CS(=O)(=O)CCN1/N=C/c1ccc([N+](=O)[O-])o1 (stereo not shown) [Nifurtimox, reference compound]",Selectivity Index (CC50 for murine macrophages/EC50 for T. brucei),[1],23.3
same,EC50,"[1]; Trypanosoma brucei, 24 h",6 ± 0.4 µM
same,CC50 at 24 h,[2],140 ± 2 µM
same,cytotoxicity at 24 µM,"[3]; Trypanosoma cruzi, read-out: % Cytotoxicity T. Cruzi Epimastigote Form, at 24 µM, 72 h",46 ± 1.9%
CN(C)C(=O)/N=N/C(=O)N(C)C [diamide],biosensor oxidation,"[8]; 250 µM, 20 min",54%
